Assay results reported in publication PMC11093748, “De novo identification of CD4^+ T cell epitopes” (Nature Methods, 2024).

Key:
BDC2.5 TCR = assay: I-Ag7 SABR-II library screen, enrichment score; format: cell-based, mouse; conditions: I-Ag7 library
Source text: We then asked whether SABR-IIs could be used to present a library of epitopes for CD4^+ T cell antigen discovery. To that end, we constructed a SABR-II library to present epitopes derived from pancreatic islets in I-Ag7 by curating a list of 4,075 published epitopes from the Immune Epitope Database (iedb.org)[50] and a study by Wan et al.[51] (Supplementary Table 1). Of note, this defined library consisted of unmodified epitopes from endogenous proteins, synthetic mimotopes, deamidated epitopes and hybrid insulin peptides (HIPs) that arise from post-translational fusion and are not genetically encoded in vivo[52],[53]. The epitope library was inserted into the I-Ag7 SABR-II backbone through pooled oligonucleotide synthesis, amplification and ligation-free cloning (Extended Data Fig. 3a). The I-Ag7 SABR-II-library was then expressed in NFAT–GFP Jurkat cells. We confirmed that after sequencing, the library accounted for a mean of 708 reads per epitope (Extended Data Fig. 3b). As a proof of concept, we performed co-incubation assays with Jurkat cells expressing the BDC2.5 TCR and sorted the top 1–2% of GFP^+CD69^+ cells at a rate of ~20 min per replicate with three replicates per TCR. We extracted the genomic DNA from sorted cells, amplified the SABR portion of the integrated proviruses and subjected the amplicons to Illumina sequencing (Extended Data Fig. 3c,d). The 1–2% sort gate represents >50-fold enrichment of cognate epitopes with minimal loss of signal (Extended Data Fig. 3e–h). Sequence reads were aligned to the I-Ag7 SABR-II backbone and the corresponding epitopes were scored based on their read counts. For each TCR under investigation, an enrichment score (ES) was determined for all the epitopes in a library. In each experiment, three replicates of a sort with TCR-expressing Jurkat cells were performed and reads were counted post-sequencing. In addition, three replicates of the unsorted library were also sequenced. A linear regression model was built using the unsorted library counts and used to determine the expected abundance of each epitope in the library. The ES was calculated based on the difference between the measured and the expected abundance of each epitope on a per-TCR basis (Fig. 1e). Based on ES values, two quantitative thresholds were used to determine putative cognate epitopes of a given TCR. A high-confidence zone containing clear outliers with a high ES and a low-confidence zone containing weak outliers with a moderately high ES were determined (Fig. 1e). This two-tiered strategy was used to call putative hits from screens. All the top-scoring epitopes for the BDC2.5 TCR were known BDC2.5 ligands containing the WXRM(D/E) motif (Fig. 1f,g, enriched ligands in red), a well-characterized trait of the BDC2.5 TCR[43],[54]–[56]. Across several independent experiments there was limited variation in ES values for the same TCRs and several epitopes fell into high- or low-confidence zones consistently (Extended Data Fig. 4a). Using a different TCR that was isolated from NOD mice, 4-8Ins[57], which recognized the InsB9:23 epitope ([…]), we observed a similar pattern of ES for cognate epitopes (Extended Data Fig. 4b).
For SABR library screens, 3 × 10^6 NFAT–GFP Jurkat cells expressing the SABR library were labeled with CellTrace Violet (BioLegend) according to the manufacturer’s protocol before incubation with 3 × 10^6 Jurkat cells expressing the TCR of interest. These mixtures were incubated in a six-well plate for 16–20 h. Cells were stained with anti-CD69-APC-Cy7 where indicated (BioLegend) and the top 1–2% of GFP^+CD69^+ cells were sorted for genomic DNA extraction, indexing and sequencing (see below). Multiplexed assays were scaled on a per-TCR basis (for example 3 × 10^6 for each of three TCRs against 9 × 10^6 library cells). […]

Jurkat cells, No TCR = assay: Single SABR-II co-incubation, background without TCR; format: cell-based, human; conditions: No TCR
Source text: (§1) We performed systematic screening of the cloned TCRs against the I-Ag7 SABR-II library. Several TCRs along with a positive control (such as BDC2.5 or 4-8Ins) were screened individually against the library for each sort (Extended Data Fig. 6a and Supplementary Table 4). High- and low-confidence ES zones for each screened TCR were defined by the ES values of the control TCR’s cognate epitopes. For all putative cognate epitopes, single SABR-IIs were constructed, expressed in NFAT–GFP Jurkat cells and used for co-incubation with the corresponding TCRs. Co-incubation assays that yielded a GFP signal higher than that obtained in assays with no TCR were determined to be positive and the epitopes deemed true cognate ligands (Extended Data Fig. 6b,c). Using this strategy, we obtained epitopes in the high-confidence zone for eight TCRs (Fig. 3a and Extended Data Fig. 6b,d). Among numerous altered peptide ligands (APLs), these TCRs recognized the physiological InsC-ChgA HIP ([…] and analogs, recognized by TCR5, TCR6B, TCR9 and TCR34), InsC-Iapp HIP ([…] and analogs, recognized by TCR4 and TCR15) and InsB9:23 ([…] and analogs recognized by TCR24 and TCR37). These cognate high-confidence hits were validated using single SABR-II co-incubation assays (Fig. 3b and Extended Data Fig. 7a). Further validations using in vitro mouse interleukin-2 (mIL-2) secretion by TCR-expressing 5KC reporter cells[13] or CD25 expression by TCR-expressing splenic CD4^+ T cells upon stimulation with the cognate epitope were performed (Extended Data Fig. 7b,c). Furthermore, low-confidence hits were called for ten TCRs and tested in co-incubation assays.
(§2) For SABR library screens, 3 × 10^6 NFAT–GFP Jurkat cells expressing the SABR library were labeled with CellTrace Violet (BioLegend) according to the manufacturer’s protocol before incubation with 3 × 10^6 Jurkat cells expressing the TCR of interest. These mixtures were incubated in a six-well plate for 16–20 h. Cells were stained with anti-CD69-APC-Cy7 where indicated (BioLegend) and the top 1–2% of GFP^+CD69^+ cells were sorted for genomic DNA extraction, indexing and sequencing (see below). Multiplexed assays were scaled on a per-TCR basis (for example 3 × 10^6 for each of three TCRs against 9 × 10^6 library cells). For single SABR assays, unless otherwise defined, 5 × 10^5 SABR expressing NFAT–GFP Jurkat cells (or 5KC cells) were labeled with CellTrace Violet (BioLegend) according to the manufacturer’s protocol before incubation with 5 × 10^5 TCR-expressing Jurkat cells (or 5KC cells) in a round-bottom 96-well plate for 16–20 h. Cells were stained with anti-CD69-APC-Cy7 when indicated and acquired on the Attune NxT flow cytometer (Thermo Fisher Scientific). All flow analysis was performed using FlowJo (BD). For Daudi cell co-culture, 1 × 10^6 Jurkat cells expressing the TCR of interest were incubated with 1 × 10^6 Daudi cells expressing a SABR of interest for 3 days. On day 3, cells were labeled with anti-RT1B-PE and anti-Fas-APC-Cy7 before being acquired on the Attune NxT flow cytometer.

TCR5 = assay: Single SABR-II co-incubation, NFAT-GFP Jurkat; format: cell-based, mouse; conditions: TCR 5, Ext. Data Fig. 6C, 18-20 hr
Source text: as §1, §2

TCR3 = assay: Single SABR-II co-incubation, NFAT-GFP Jurkat; format: cell-based, mouse; conditions: TCR 3, Fig 5C
Source text: Given the predominance of HIP-reactive TCRs, we hypothesized that there may be other TCRs that respond to HIPs that were not encoded in our initial library configuration. While the initial I-Ag7 SABR-II library consisted of a number of HIPs, HIP formation is thought to be more widespread in pancreatic β-cells[52],[70]. Therefore, we sought to construct a defined, HIP-focused library to probe whether there were any undiscovered HIP-reactive TCRs that could be recognized by the clonally expanded TCR in our dataset. To test this, we utilized a published proteomic dataset, which predicted that several proteins that were highly expressed in secretory granules of β-cells may contribute to HIP formation. Using their predictions, we built a theoretical HIP library, in which all possible ‘left’ halves of the insulin C chain derived from natural cleavage products were fused to ‘right’ halves derived from secretory granule proteins (Fig. 5a). This 2,561-epitope library (12–25 amino acids per epitope) consisted of only HIPs and a small number of positive control epitopes (Supplementary Table 5). We screened the top three clonally expanded TCRs (TCR1, TCR2 and TCR3) against this library, as these TCRs had not been de-convoluted using the original library. […] To confirm that the HIP itself was important for the cognate interaction, we cloned single 14-mer epitopes into SABR-IIs consisting of seven amino acids of the left portion of the HIP and seven amino acids of the right portion of the HIP. In this way, no nine amino acids from either peptide sequence alone could occupy the binding pocket of I-Ag7, ensuring that TCR reactivity spanned the HIP junction. […] Of note, in all the epitopes that were tested, the ‘left’ half derived from insulin C was conserved, whereas the ‘right’ halves were derived from several other proteins (Fig. 5d). […] Moreover, the promiscuous binding of TCR3 to HIPs corroborates evidence from other NOD mouse-derived TCRs reacting to multiple HIPs[72].
as §2

TCR4 = assay: Single SABR-II co-incubation, NFAT-GFP Jurkat; format: cell-based, mouse; conditions: TCR 4, Fig 5C
Source text: as §1, §2

[1] = EXPT1 of 8 biological experiments
[2] = Ext. Data Fig. 6C, 18-20 hr, technical replicate 1
[3] = Ext. Data Fig. 6C, 18-20 hr, technical replicate 2

Sequence	Enrichment score (BDC2.5 TCR; [1])	Enrichment score (BDC2.5 TCR; EXPT2 of 8)	Enrichment score (BDC2.5 TCR; EXPT3 of 8)	Enrichment score (BDC2.5 TCR; EXPT4 of 8)	Enrichment score (BDC2.5 TCR; EXPT5 of 8)	Enrichment score (BDC2.5 TCR; EXPT6 of 8)	Enrichment score (BDC2.5 TCR; EXPT7 of 8)	Enrichment score (BDC2.5 TCR; EXPT8 of 8)	%GFP+CD69+ cells of SABR-NFAT-GFP-Jurkat cells (Jurkat cells, No TCR; [2])	%GFP+CD69+ cells of SABR-NFAT-GFP-Jurkat cells (Jurkat cells, No TCR; [3])	%GFP+CD69+ cells of SABR-NFAT-GFP-Jurkat cells (TCR5; technical replicate 1)	%GFP+CD69+ cells of SABR-NFAT-GFP-Jurkat cells (TCR5; technical replicate 2)	%GFP+CD69+ cells of SABR-NFAT-GFP-Jurkat cells (TCR3; technical replicate 1)	%GFP+CD69+ cells of SABR-NFAT-GFP-Jurkat cells (TCR3; technical replicate 2)	%GFP+CD69+ cells of SABR-NFAT-GFP-Jurkat cells (Jurkat cells, No TCR; Fig 5C, technical replicate 1)	%GFP+CD69+ cells of SABR-NFAT-GFP-Jurkat cells (Jurkat cells, No TCR; Fig 5C, technical replicate 2)	%GFP+CD69+ cells of SABR-NFAT-GFP-Jurkat cells (TCR4; technical replicate 1)	%GFP+CD69+ cells of SABR-NFAT-GFP-Jurkat cells (TCR4; technical replicate 2)
EKAHHPIWARMDAKK	0.000952	0.00052	0.00087	0.00058	0.001178	0.001392	0.000919	0.000731	0.55%	0.54%	34.4%	35.1%						
EKAHLAIWARMDAKK									0.84%	1%	79.9%	77.9%						
EKAHVPIWARMDAKK	0.000866	0.000378	0.000722	0.00038	0.000744	0.001001	0.000451	0.000387	2.48%	2.95%	29.9%	30.2%						
EQLELGGHIEDSGE [14-mer hybrid insulin peptide spanning the fusion junction, TCR3 hit]													29.1%	28.9%	14.1%	13.9%	13.2%	14.3%
RLGLWSRMDQLAKELTAE	0.001771	0.001151	0.002655	0.001435	0.002428	0.00271	0.002468	0.002661	1.36%	1.22%	56.2%	56%						
RRAGDLQTLWSRMDARR	0.002517	0.001322	0.002797	0.002419	0.002428	0.002187	0.002605	0.002542	0.37%	0.41%	22.4%	18.8%						
SRLGLWSRMDQLAKELTAE	0.002042	0.001129	0.002688	0.002123	0.003298	0.002741	0.00232	0.003121	1.65%	1.6%	73.5%	71.6%						
SRLGLWVRMEQLAKELTAE	0.001795	0.001184	0.002703	0.001978	0.002454	0.002768	0.002526	0.002128	1.58%	1.53%	21.9%	19.4%						
